The structures appear in SMILES notation. Active and inactive are the calls of the source.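 How the source made its calls: active means a tumor-causing dose value with its tumor site reported for any sex and species group of a rodent or other animal cancer study; inconclusive means only studies judged inadequate by the national testing program; inactive means tested in at least one study, none positive.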

This series in a line: DSSTox (CPDBAS) Carcinogenic Potency Database Summary SingleCellCall Results. The settings on record: animal chronic carcinogenicity bioassays, CPDB summary call. The essentials: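 Categorical carcinogenicity call compiled from published chronic rodent and other animal cancer bioassays; based on the most positive result across experiments for each sex-species, assigned on minimal evidence for or against activity.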
For `Nc1ccc(N)cc1`, the outcome was inactive.
Take `Clc1cc2c(cc1Cl)Oc1cc(Cl)c(Cl)cc1O2`: the outcome is “active; inactive”.
For `C=C(C)C(=O)OC` the value was “inactive; active”; for `O=C1NC(=O)C(c2ccccc2)(c2ccccc2)N1`, “active”; for `CC(C)C=O`, “inactive”.
Regarding `CCCCCCCCCCCCCCN(C)N=O`, the outcome was active.
Regarding `C[C@@H]1C[C@H]2[C@@H]3CCC4=CC(=O)C=C[C@]4(C)[C@@]3(F)[C@@H](O)C[C@]2(C)[C@@]1(O)C(=O)CO`, the outcome was inactive.
Regarding `CCCN(CCC)N=O`, the outcome was active.
Then `O=C1C(Cl)=C(Cl)C(=O)C(Cl)=C1Cl`, with “inactive”.
With `CN(C)N=O`, the result was active.
Then `CC(C)(C)c1cc(CO)cc(C(C)(C)C)c1O`, with “inactive”; and `O=c1ccc(=O)[nH][nH]1`, with “inactive; active”.
Then `Cc1c([N+](=O)[O-])c(C)c([N+](=O)[O-])c(C(C)(C)C)c1[N+](=O)[O-]`, with “active”; and `O=c1cc[nH]c(=S)[nH]1`, with “active; inactive”; and `CCOP(=S)(OCC)SC1OCCOC1SP(=S)(OCC)OCC` (configuration not stated), with “inactive”.
For `O=NN1CN2CN(C1)CN(N=O)C2`, the result was inactive.
With `Cl/C=C/CCl`, the outcome was active.
For `CCCCCCCCCCCCN(C)N=O` the value was “active”; for `[Cl-].[Cl-].[Hg+2]`, “active”; for `COc1cccc(O)c1O`, “active”.
Turning to `O=C1NCCN1/N=C/c1ccc([N+](=O)[O-])o1`, the outcome was active.
As for `NNCCc1ccccc1`, the result was active.
Then `COc1cc(-c2ccc(N=C=O)c(OC)c2)ccc1N=C=O`, with “active”; and `CCOP(=O)(CC1CO1)OCC` (configuration not stated), with “inactive”.
For the molecule `Cc1ccccc1[N+](=O)[O-]`, the result was active.
Then `CNC[C@H](O)c1ccc(O)c(O)c1`, with “inactive”; and `C1CCCNCCC1`, with “inactive”.
Then `CN(C)CCOC(c1ccccc1)c1ccccc1`, with “inactive”.
On to `OCC(CO)N[C@H]1C[C@](O)(CO)[C@@H](O)[C@H](O)[C@H]1O`, for which the result was inactive.
For `O=NN(CCCl)C(=O)N[C@@H]1[C@@H](O)[C@H](O)[C@@H](CO)O[C@@H]1O`, the result was active.
Then `O=c1c(O)c(-c2ccc(O)cc2)oc2cc(O)cc(O)c12`, with “inactive”.
Regarding `CCCN(CCC)c1ccc(N=Nc2cc[n+]([O-])cc2)cc1`, the result was inactive.
For `CCOP(=S)(OCC)Oc1cc(C)nc(C(C)C)n1` the value was “inactive; active”.
`COP(=S)(OC)Oc1ccc([N+](=O)[O-])cc1`: the result was inactive.
Then `CCC[CH2][Sn]([CH2]CCC)([CH2]CCC)[O][Sn]([CH2]CCC)([CH2]CCC)[CH2]CCC`, with “inactive”; and `FC(F)(F)C(Cl)Cl`, with “active”; and `CCN=[N+](C)[O-]`, with “active”.
For `CCCCCCCCS(=O)C(C)Cc1ccc2c(c1)OCO2` (configuration not stated) the value was “active”.
Then `CC1=C(C(=O)OCCN(Cc2ccccc2)c2ccccc2)C(c2cccc([N+](=O)[O-])c2)C(P2(=O)OCC(C)(C)CO2)=C(C)N1` (configuration not stated), with “inactive”; and `CC(=O)Nc1ccc(OCC(O)CNC(C)C)cc1` (configuration not stated), with “inactive”.
`ClC1=C(Cl)[C@@]2(Cl)[C@@H]3[C@@H](Cl)[C@H](Cl)C[C@@H]3C1(Cl)C2(Cl)Cl`: the result was active.
For the molecule `CCN(N=O)C(=O)NCCO`, the result was active.
Regarding `CCCCCCCCCCCCCCCC(=O)CC(=O)CCCCCCCCCCCCCCC`, the result was active.
In the case of `CN1CCCC1=O`, the outcome was active.
Turning to `O=C1c2ccccc2CN2C(=O)c3ccccc3CN12`, the result was active.
For `OC[C@@H](O)[C@@H](O)[C@H](O)[C@H](O)CO[C@H]1O[C@H](CO)[C@@H](O)[C@H](O)[C@H]1O` the value was “inactive”; for `OCC1CO1` (configuration not stated), “active”.
`CS(=O)(=O)OCCCNCCCOS(C)(=O)=O`: the outcome is “inactive; active”.
Then `Cc1cccc(N=Nc2ccc(N(C)C)cc2)c1`, with “active”.
For `Nc1nc(N)nc(-c2ccccc2)n1` the value was “inactive; active”.
Then `CNC(=S)N(C)C`, with “active”.
In the case of `CCN(CC)C(=S)S[Se](SC(=S)N(CC)CC)(SC(=S)N(CC)CC)SC(=S)N(CC)CC`, the outcome is “active; inactive”.
Then `CCCCN(CCCC)N=O`, with “active”.
Regarding `CC(C)n1c(/C=C/[C@@H](O)C[C@@H](O)CC(=O)O)c(-c2ccc(F)cc2)c2ccccc21`, the result was active.
For `O=C1C=C2C(=CCOC2O)O1` (configuration not stated) the value was “inactive”; for `Clc1c(Cl)c(Cl)c(Cl)c(Cl)c1Cl`, “active; inactive”.
For the molecule `Nc1ccc2oc3ccccc3c2c1`, the outcome was active.
Then `N#[N+]c1cc(CCN)ccc1[O-]`, with “active”; and `NC(=S)NNS(=O)(=O)c1ccccc1`, with “inactive”; and `O=C(O)C(Cl)(Cl)Cl`, with “active”.
Then `Cc1c(N(C)CS(=O)(=O)O)c(=O)n(-c2ccccc2)n1C`, with “active”.
Then `CCN(N=O)C(N)=O`, with “active; inactive”; and `O=NN1CCCC1c1cccnc1` (configuration not stated), with “active”; and `CCOC(=O)[C@]1(c2ccccc2)CCC=C[C@H]1N(C)C`, with “inactive”.
With `Nc1cc(S(=O)(=O)O)cc2cc(S(=O)(=O)O)c(N=Nc3ccc(-c4ccc(N=Nc5c(S(=O)(=O)O)cc6cc(S(=O)(=O)O)cc(N)c6c5O)cc4)cc3)c(O)c12`, the result was active.
Then `O=S(=O)(O)NC1CCCCC1`, with “active”.
For `O=C(O)Cc1cccc2ccccc12` the value was “inactive; active”; for `Nc1nc(-c2ccc([N+](=O)[O-])cc2)cs1`, “active”; for `[O]=[Bi]`, “inactive; active”.
On to `O=S1(=O)OCCO1`, for which the outcome was inactive.
Regarding `c1cc(OCC2CO2)cc(OCC2CO2)c1` (configuration not stated), the outcome was active.
On to `CCCCCCCC/C=C\CCCCCCCC(=O)O`, for which the outcome was inactive.
For `C[C@@H]1C[C@H](C)CN(S(=O)(=O)c2ccc(Cl)c(C(=O)O)c2)C1` the value was “active”; for `CCN(CC)C(C)=O`, “active”.
Then `CC(=O)Nc1ccc2c(c1)Cc1cc(NC(C)=O)ccc1-2`, with “inactive”; and `O.O.O.O.O.O.O.O.O=S(=O)([O-])[O-].O=S(=O)([O-])[O-].O=S(=O)([O-])[O-].[Cd+2].[Cd+2].[Cd+2]`, with “inactive”; and `O=S(=O)([O-])[O-].[Cd+2]`, with “active; inactive”.
For `COc1cc2c(c3oc(=O)c4c(c13)CCC4=O)C1C=COC1O2` (configuration not stated) the value was “active”; for `CC[C@H](C)[C@H]1O[C@]2(CC[C@@H]1C)C[C@@H]1C[C@@H](C/C=C(\C)[C@@H](O[C@H]3C[C@H](OC)[C@@H](O[C@H]4C[C@H](OC)[C@@H](O)[C@H](C)O4)[C@H](C)O3)[C@@H](C)/C=C/C=C3\CO[C@@H]4[C@H](O)C(C)=C[C@@H](C(=O)O1)[C@]34O)O2`, “inactive”; for `CC(=O)Nc1cccc2c1Cc1ccccc1-2`, “inactive; active”.
Consider `COP(=O)(OC)OC=C(Cl)Cl`, for which the outcome was active.
On to `CC(C)C(C(=O)OC(C#N)c1cccc(Oc2ccccc2)c1)c1ccc(Cl)cc1` (configuration not stated), for which the outcome was inactive.
For `CC(C)CCCCCCOC(=O)c1ccccc1C(=O)OCCCCCCC(C)C` the value was “active; inactive”; for `C=C1C[C@@]23CC[C@H]4[C@@](C)(CCC[C@@]4(C)C(=O)O[C@@H]4O[C@H](CO)[C@@H](O)[C@H](O)[C@H]4O)[C@@H]2CC[C@]1(O[C@@H]1O[C@H](CO)[C@@H](O)[C@H](O)[C@H]1O[C@@H]1O[C@H](CO)[C@@H](O)[C@H](O)[C@H]1O)C3`, “inactive”; for `CCS(=O)(=O)c1ccc(S(N)(=O)=O)c2ccccc12`, “active”.
For `CC(/C=C/C=C(\C)C(=O)O[C@@H]1O[C@H](CO[C@@H]2O[C@H](CO)[C@@H](O)[C@H](O)[C@H]2O)[C@@H](O)[C@H](O)[C@H]1O)=C\C=C\C=C(C)\C=C\C=C(/C)C(=O)O[C@@H]1O[C@H](CO[C@@H]2O[C@H](CO)[C@@H](O)[C@H](O)[C@H]2O)[C@@H](O)[C@H](O)[C@H]1O` the value was “inactive”; for `CC1(C)COC1=O`, “active”.
Take `O=C(O)CCCc1ccc(N(CCCl)CCCl)cc1`: the outcome was active.
For `NC(=S)NNC=O` the value was “inactive”.
For `Nc1ccc(-c2ccc(N)c(Cl)c2)cc1Cl` the value was “active”.
Then `O=NN1CCOC1=O`, with “active; inactive”; and `Cc1cccn2c1nc1ccc(N)nc12`, with “active”.
With `O=C(O)c1ccc(O)c(O)c1`, the outcome was inactive.
Then `ClC1=C(Cl)C2(Cl)C3C(Cl)C=CC3C1(Cl)C2(Cl)Cl` (configuration not stated), with “active”; and `CCN(CC)CCCNC(=O)Cn1ncc(-c2ccccc2)c1-c1ccccc1`, with “inactive”.
Then `O=[N+]([O-])c1ccc(-c2cnc3ccccn23)o1`, with “active”; and `C=CC(=O)OCC`, with “active”; and `CCCCN(CCCC)C(=S)[S-].CCCCN(CCCC)C(=S)[S-].[Zn+2]`, with “inactive”.
Take `CCCCC(CC)COC(=O)c1ccccc1C(=O)OCC(CC)CCCC` (configuration not stated): the outcome was active.
Then `O=[Se]=O`, with “inactive”.
Regarding `O=C1O[C@@H](CN2CCOCC2)CN1/N=C/c1ccc([N+](=O)[O-])o1`, the result was active.
With `CC12CCC(CC1)C(C)(C)O2`, the result was inactive.

Values taken from PubChem BioAssay AID1189 (EPA DSSTox, 2008).
